Measured values published in the kinase profiling compilation of Christmann-Franck et al. (2016).

Experiments:
Experiment in all cases: KINOMEscan competition binding
Conditions in all cases: compound 10.0 µM
FRK (human) = FRK (human) (UniProt P42685)
MYLK2 (human) = MYLK2 (human) (UniProt Q9H1R3)
MAPK14 (human) = MAPK14 (human) (UniProt Q16539)
[1] = tested on: EGFR (human), P00533 [G719C]
MUSK (human) = MUSK (human) (UniProt O15146)
CDK5 (human) = CDK5 (human) (UniProt Q00535)
EPHA2 (human) = EPHA2 (human) (UniProt P29317)
Sequence of EPHA2 (human) (P29317 whole entry, looked up): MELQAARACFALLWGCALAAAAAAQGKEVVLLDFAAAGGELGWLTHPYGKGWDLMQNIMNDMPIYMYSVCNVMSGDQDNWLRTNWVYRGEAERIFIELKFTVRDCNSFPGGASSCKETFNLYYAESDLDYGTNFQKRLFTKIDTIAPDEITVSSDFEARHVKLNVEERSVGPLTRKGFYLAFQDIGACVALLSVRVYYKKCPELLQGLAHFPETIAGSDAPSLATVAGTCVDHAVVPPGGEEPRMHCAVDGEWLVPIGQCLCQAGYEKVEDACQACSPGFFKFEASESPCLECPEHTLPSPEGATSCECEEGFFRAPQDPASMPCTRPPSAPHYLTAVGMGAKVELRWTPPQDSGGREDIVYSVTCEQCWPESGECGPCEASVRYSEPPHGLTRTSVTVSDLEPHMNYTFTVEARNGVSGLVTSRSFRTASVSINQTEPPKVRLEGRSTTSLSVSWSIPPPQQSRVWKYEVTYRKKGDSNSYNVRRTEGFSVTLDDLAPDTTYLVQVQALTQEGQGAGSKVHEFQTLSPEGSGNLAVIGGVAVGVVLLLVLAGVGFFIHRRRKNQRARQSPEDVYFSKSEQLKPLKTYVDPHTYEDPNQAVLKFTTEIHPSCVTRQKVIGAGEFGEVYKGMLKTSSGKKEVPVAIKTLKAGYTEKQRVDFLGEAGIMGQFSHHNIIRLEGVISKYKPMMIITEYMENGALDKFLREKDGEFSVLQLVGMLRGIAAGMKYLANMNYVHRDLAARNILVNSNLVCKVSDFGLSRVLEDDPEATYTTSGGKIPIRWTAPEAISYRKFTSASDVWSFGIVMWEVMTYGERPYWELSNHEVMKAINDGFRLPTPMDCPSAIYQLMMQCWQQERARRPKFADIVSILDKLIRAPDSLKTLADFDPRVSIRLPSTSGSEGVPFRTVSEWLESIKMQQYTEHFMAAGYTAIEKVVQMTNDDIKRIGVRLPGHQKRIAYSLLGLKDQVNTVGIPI

PTK6 (human) = PTK6 (human) (UniProt Q13882)
Sequence of PTK6 (human) (Q13882 whole entry, looked up): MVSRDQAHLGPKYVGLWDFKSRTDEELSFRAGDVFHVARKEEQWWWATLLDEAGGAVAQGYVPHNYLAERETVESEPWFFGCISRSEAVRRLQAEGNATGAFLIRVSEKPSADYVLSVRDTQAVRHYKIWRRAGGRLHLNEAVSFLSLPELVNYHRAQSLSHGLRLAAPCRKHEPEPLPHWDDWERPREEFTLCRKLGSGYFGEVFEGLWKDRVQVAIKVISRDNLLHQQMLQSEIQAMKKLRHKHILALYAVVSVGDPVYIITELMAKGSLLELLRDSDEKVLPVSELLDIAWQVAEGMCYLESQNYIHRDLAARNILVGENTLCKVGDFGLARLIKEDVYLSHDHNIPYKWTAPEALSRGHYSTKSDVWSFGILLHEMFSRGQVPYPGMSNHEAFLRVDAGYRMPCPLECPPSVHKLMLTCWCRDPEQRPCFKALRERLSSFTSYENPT

KIT (human) = KIT (human) (UniProt P10721)
Sequence of KIT (human) (P10721 whole entry, looked up): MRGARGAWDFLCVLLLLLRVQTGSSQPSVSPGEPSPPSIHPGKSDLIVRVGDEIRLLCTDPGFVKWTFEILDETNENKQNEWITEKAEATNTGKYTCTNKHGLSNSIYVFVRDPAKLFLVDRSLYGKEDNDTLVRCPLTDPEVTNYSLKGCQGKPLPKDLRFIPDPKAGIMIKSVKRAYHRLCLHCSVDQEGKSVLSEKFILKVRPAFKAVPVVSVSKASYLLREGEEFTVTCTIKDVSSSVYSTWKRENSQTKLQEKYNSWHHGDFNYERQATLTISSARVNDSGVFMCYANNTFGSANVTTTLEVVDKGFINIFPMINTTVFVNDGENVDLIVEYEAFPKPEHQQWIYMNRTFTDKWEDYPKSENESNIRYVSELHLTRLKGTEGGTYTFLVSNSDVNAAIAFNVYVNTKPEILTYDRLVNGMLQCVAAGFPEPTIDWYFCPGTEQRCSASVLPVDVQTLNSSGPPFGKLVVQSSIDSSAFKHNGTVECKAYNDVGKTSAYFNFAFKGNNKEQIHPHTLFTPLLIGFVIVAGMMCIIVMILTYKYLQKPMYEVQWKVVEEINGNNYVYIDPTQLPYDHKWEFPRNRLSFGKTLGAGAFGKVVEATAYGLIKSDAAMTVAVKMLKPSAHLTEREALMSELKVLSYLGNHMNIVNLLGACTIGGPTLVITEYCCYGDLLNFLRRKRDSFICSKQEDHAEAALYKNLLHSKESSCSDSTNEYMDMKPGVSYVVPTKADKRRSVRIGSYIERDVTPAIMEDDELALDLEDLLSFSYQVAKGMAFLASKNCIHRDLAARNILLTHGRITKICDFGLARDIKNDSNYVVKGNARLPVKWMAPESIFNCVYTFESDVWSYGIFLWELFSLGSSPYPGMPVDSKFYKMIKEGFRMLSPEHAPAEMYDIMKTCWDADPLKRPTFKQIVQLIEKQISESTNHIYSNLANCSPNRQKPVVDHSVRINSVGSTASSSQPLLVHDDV

TNIK (human) = TNIK (human) (UniProt Q9UKE5)
[2] = tested on: KIT (human), P10721 [V559D]
Sequence of KIT (human), P10721 [V559D] (P10721 whole entry V559D, looked up): as the sequence (P10721 whole entry, looked up) above, with V559D counted along it

EGFR (human) = EGFR (human) (UniProt P00533)
CIT (human) = CIT (human) (UniProt O14578)
FLT1 (human) = FLT1 (human) (UniProt P17948)
Sequence of FLT1 (human) (P17948 whole entry, looked up): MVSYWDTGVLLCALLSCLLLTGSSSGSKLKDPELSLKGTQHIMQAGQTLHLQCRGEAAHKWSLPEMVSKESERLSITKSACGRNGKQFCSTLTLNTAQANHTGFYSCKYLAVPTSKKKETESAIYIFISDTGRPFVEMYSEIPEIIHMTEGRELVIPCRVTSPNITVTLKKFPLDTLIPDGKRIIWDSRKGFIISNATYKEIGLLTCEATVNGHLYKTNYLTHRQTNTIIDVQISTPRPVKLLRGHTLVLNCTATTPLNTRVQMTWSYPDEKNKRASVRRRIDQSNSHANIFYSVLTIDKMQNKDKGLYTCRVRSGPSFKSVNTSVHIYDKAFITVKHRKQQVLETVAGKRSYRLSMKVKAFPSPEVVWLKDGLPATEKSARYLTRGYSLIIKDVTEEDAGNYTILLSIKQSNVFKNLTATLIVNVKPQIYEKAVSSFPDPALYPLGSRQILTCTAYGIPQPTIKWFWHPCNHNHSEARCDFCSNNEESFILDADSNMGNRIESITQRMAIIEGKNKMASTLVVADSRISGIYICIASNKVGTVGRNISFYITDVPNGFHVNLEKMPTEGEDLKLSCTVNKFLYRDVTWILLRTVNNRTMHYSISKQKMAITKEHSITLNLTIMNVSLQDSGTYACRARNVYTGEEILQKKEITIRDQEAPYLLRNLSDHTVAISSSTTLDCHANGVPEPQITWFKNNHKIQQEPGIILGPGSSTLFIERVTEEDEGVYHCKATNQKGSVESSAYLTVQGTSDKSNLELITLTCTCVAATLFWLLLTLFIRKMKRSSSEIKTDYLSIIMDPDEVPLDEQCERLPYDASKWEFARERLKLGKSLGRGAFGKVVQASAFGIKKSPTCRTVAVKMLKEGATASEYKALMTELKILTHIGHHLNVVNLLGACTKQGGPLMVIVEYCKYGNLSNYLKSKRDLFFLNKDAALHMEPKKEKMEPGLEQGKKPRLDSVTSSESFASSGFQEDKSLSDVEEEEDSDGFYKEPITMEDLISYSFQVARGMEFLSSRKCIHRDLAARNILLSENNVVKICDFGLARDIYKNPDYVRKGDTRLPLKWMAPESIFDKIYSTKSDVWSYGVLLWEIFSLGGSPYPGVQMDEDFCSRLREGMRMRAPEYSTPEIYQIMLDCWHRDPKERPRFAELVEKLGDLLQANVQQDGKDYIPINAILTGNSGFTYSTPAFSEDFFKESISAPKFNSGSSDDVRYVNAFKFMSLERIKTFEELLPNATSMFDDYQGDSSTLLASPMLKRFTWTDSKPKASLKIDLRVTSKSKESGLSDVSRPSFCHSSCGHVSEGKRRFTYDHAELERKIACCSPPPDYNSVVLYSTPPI

MAP3K3 (human) = MAP3K3 (human) (UniProt Q99759)
Sequence of MAP3K3 (human) (Q99759 whole entry, looked up): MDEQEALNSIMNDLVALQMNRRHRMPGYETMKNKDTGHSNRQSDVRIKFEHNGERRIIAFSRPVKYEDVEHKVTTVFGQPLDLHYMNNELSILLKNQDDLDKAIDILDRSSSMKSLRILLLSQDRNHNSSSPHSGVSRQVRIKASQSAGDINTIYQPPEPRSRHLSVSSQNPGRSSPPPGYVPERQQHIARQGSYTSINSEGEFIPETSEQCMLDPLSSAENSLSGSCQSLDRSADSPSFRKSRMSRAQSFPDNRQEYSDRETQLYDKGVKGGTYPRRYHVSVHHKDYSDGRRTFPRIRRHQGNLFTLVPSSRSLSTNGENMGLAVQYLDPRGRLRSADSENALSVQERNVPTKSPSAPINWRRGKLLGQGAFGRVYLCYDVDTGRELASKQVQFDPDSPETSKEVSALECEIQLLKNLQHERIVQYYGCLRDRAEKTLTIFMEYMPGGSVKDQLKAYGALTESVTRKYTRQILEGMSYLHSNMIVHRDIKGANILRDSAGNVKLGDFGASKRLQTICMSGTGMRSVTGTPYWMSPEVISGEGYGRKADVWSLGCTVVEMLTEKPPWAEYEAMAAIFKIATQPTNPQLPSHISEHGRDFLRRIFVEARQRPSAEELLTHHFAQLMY

YES1 (human) = YES1 (human) (UniProt P07947)
[3] = tested on: EGFR (human), P00533 [752-759 del]
SIK2 (human) = SIK2 (human) (UniProt Q9H0K1)
DCLK3 (human) = DCLK3 (human) (UniProt Q9C098)
CSNK2A1 (human) = CSNK2A1 (human) (UniProt P68400)
RIOK1 (human) = RIOK1 (human) (UniProt Q9BRS2)
MAP3K7 (human) = MAP3K7 (human) (UniProt O43318)
MAP3K9 (human) = MAP3K9 (human) (UniProt P80192)
DAPK2 (human) = DAPK2 (human) (UniProt Q9UIK4)
MYLK4 (human) = MYLK4 (human) (UniProt Q86YV6)
MAP2K4 (human) = MAP2K4 (human) (UniProt P45985)
STK4 (human) = STK4 (human) (UniProt Q13043)
AURKA (human) = AURKA (human) (UniProt O14965)
CDC42BPG (human) = CDC42BPG (human) (UniProt Q6DT37)
BMPR1B (human) = BMPR1B (human) (UniProt O00238)
IGF1R (human) = IGF1R (human) (UniProt P08069)
STK24 (human) = STK24 (human) (UniProt Q9Y6E0)
RPS6KA3 KD1 (human) = RPS6KA3 KD1 (human) (UniProt P51812)
STK32C (human) = STK32C (human) (UniProt Q86UX6)
PIM2 (human) = PIM2 (human) (UniProt Q9P1W9)
RPS6KA4 KD1 (human) = RPS6KA4 KD1 (human) (UniProt O75676)
ZAP70 (human) = ZAP70 (human) (UniProt P43403)
PAK2 (human) = PAK2 (human) (UniProt Q13177)
CSNK1G3 (human) = CSNK1G3 (human) (UniProt Q9Y6M4)
ACVR1 (human) = ACVR1 (human) (UniProt Q04771)
CAMK2G (human) = CAMK2G (human) (UniProt Q13555)
CAMK2B (human) = CAMK2B (human) (UniProt Q13554)

Sequence of MYLK2 (human) (Q9H1R3 whole entry, looked up): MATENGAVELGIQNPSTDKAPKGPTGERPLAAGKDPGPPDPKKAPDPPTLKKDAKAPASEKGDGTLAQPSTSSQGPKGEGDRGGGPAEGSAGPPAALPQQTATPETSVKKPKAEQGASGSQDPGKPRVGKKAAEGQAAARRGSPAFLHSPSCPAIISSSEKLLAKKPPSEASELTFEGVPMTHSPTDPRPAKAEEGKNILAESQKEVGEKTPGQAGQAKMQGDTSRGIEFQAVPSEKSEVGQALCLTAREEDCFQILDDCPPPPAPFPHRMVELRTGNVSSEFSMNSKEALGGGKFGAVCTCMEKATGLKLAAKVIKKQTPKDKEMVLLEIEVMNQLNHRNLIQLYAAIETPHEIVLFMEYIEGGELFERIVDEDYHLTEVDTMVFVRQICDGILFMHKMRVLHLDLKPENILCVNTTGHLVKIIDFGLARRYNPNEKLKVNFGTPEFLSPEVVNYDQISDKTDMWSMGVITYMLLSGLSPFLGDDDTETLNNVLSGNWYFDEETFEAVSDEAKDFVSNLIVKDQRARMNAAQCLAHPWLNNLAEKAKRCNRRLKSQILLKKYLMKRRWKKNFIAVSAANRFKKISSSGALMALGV

Structure (SMILES): CCN1CCN(Cc2ccc(NC(=O)c3ccc(C)c(Oc4ccnc5[nH]ccc45)c3)cc2C(F)(F)F)CC1
- kinase still bound, per cent of control (FRK (human)): 0.7%
- kinase still bound, per cent of control (MYLK2 (human)): 8.4%
- kinase still bound, per cent of control (MAPK14 (human)): 0%
- kinase still bound, per cent of control [1]: 12%
- kinase still bound, per cent of control (MUSK (human)): 0.2%
- kinase still bound, per cent of control (CDK5 (human)): 19%
- kinase still bound, per cent of control (EPHA2 (human)): 3.1%
- kinase still bound, per cent of control (PTK6 (human)): 28%
- kinase still bound, per cent of control (KIT (human)): 0%
- kinase still bound, per cent of control (TNIK (human)): 8.2%
- kinase still bound, per cent of control [2]: 0%
- kinase still bound, per cent of control (EGFR (human)): 5.6%
- kinase still bound, per cent of control (CIT (human)): 0.1%
- kinase still bound, per cent of control (FLT1 (human)): 1.6%
- kinase still bound, per cent of control (MAP3K3 (human)): 12%
- kinase still bound, per cent of control (YES1 (human)): 1.6%
- kinase still bound, per cent of control [3]: 4.6%

Structure (SMILES): COc1cc(N2CCC(N3CCN(C)CC3)CC2)ccc1Nc1ncc(Cl)c(Nc2ccccc2S(=O)(=O)C(C)C)n1
- kinase still bound, per cent of control (FRK (human)): 0.2%
- kinase still bound, per cent of control (SIK2 (human)): 7.5%
- kinase still bound, per cent of control (DCLK3 (human)): 0%
- kinase still bound, per cent of control (MYLK2 (human)): 40%
- kinase still bound, per cent of control (CSNK2A1 (human)): 27%
- kinase still bound, per cent of control (MAPK14 (human)): 40%
- kinase still bound, per cent of control (MUSK (human)): 0.35%
- kinase still bound, per cent of control (RIOK1 (human)): 2.6%
- kinase still bound, per cent of control (MAP3K7 (human)): 2.2%
- kinase still bound, per cent of control (CDK5 (human)): 5.2%
- kinase still bound, per cent of control (MAP3K9 (human)): 0.35%
- kinase still bound, per cent of control (DAPK2 (human)): 12%
- kinase still bound, per cent of control (MYLK4 (human)): 40%
- kinase still bound, per cent of control (MAP2K4 (human)): 1.6%
- kinase still bound, per cent of control (STK4 (human)): 4.1%
- kinase still bound, per cent of control (AURKA (human)): 0%
- kinase still bound, per cent of control (CDC42BPG (human)): 23%
- kinase still bound, per cent of control (BMPR1B (human)): 1.2%
- kinase still bound, per cent of control (EPHA2 (human)): 27%
- kinase still bound, per cent of control (PTK6 (human)): 0.15%
- kinase still bound, per cent of control (KIT (human)): 0.1%
- kinase still bound, per cent of control (TNIK (human)): 12%
- kinase still bound, per cent of control (IGF1R (human)): 0%
- kinase still bound, per cent of control (STK24 (human)): 24%
- kinase still bound, per cent of control [2]: 0.1%
- kinase still bound, per cent of control (EGFR (human)): 0.1%
- kinase still bound, per cent of control (CIT (human)): 40%
- kinase still bound, per cent of control (FLT1 (human)): 2.8%
- kinase still bound, per cent of control (RPS6KA3 KD1 (human)): 0.55%
- kinase still bound, per cent of control (STK32C (human)): 3.1%
- kinase still bound, per cent of control (PIM2 (human)): 40%
- kinase still bound, per cent of control (RPS6KA4 KD1 (human)): 4.4%
- kinase still bound, per cent of control (ZAP70 (human)): 10%
- kinase still bound, per cent of control (MAP3K3 (human)): 2.8%
- kinase still bound, per cent of control (PAK2 (human)): 30%
- kinase still bound, per cent of control (CSNK1G3 (human)): 40%
- kinase still bound, per cent of control (ACVR1 (human)): 0%
- kinase still bound, per cent of control (CAMK2G (human)): 2%
- kinase still bound, per cent of control (YES1 (human)): 0.1%
- kinase still bound, per cent of control [3]: 1.4%
- kinase still bound, per cent of control (CAMK2B (human)): 5.8%

Structure (SMILES): CCOc1cc(N2CCC(N3CCCCC3)CC2)ccc1Nc1nc(Nc2ccccc2S(=O)(=O)C(C)C)c2cn[nH]c2n1
- kinase still bound, per cent of control (FRK (human)): 18%
- kinase still bound, per cent of control (SIK2 (human)): 85%
- kinase still bound, per cent of control (DCLK3 (human)): 100%
- kinase still bound, per cent of control (MYLK2 (human)): 100%
- kinase still bound, per cent of control (CSNK2A1 (human)): 100%
- kinase still bound, per cent of control (MAPK14 (human)): 98%
- kinase still bound, per cent of control [1]: 81%
- kinase still bound, per cent of control (MUSK (human)): 100%
- kinase still bound, per cent of control (RIOK1 (human)): 100%
- kinase still bound, per cent of control (MAP3K7 (human)): 59%
- kinase still bound, per cent of control (CDK5 (human)): 96%
- kinase still bound, per cent of control (MAP3K9 (human)): 94%
- kinase still bound, per cent of control (DAPK2 (human)): 64%
- kinase still bound, per cent of control (MYLK4 (human)): 100%
- kinase still bound, per cent of control (MAP2K4 (human)): 8.2%
- kinase still bound, per cent of control (STK4 (human)): 100%
- kinase still bound, per cent of control (AURKA (human)): 100%
- kinase still bound, per cent of control (CDC42BPG (human)): 100%
- kinase still bound, per cent of control (BMPR1B (human)): 49%
- kinase still bound, per cent of control (EPHA2 (human)): 100%
- kinase still bound, per cent of control (PTK6 (human)): 10%
- kinase still bound, per cent of control (KIT (human)): 87%
- kinase still bound, per cent of control (TNIK (human)): 87%
- kinase still bound, per cent of control (IGF1R (human)): 0.25%
- kinase still bound, per cent of control (STK24 (human)): 82%
- kinase still bound, per cent of control [2]: 86%
- kinase still bound, per cent of control (EGFR (human)): 4.1%
- kinase still bound, per cent of control (CIT (human)): 100%
- kinase still bound, per cent of control (FLT1 (human)): 100%
- kinase still bound, per cent of control (RPS6KA3 KD1 (human)): 2%
- kinase still bound, per cent of control (STK32C (human)): 88%
- kinase still bound, per cent of control (PIM2 (human)): 100%
- kinase still bound, per cent of control (RPS6KA4 KD1 (human)): 100%
- kinase still bound, per cent of control (ZAP70 (human)): 32%
- kinase still bound, per cent of control (MAP3K3 (human)): 69%
- kinase still bound, per cent of control (PAK2 (human)): 82%
- kinase still bound, per cent of control (CSNK1G3 (human)): 50%
- kinase still bound, per cent of control (ACVR1 (human)): 60%
- kinase still bound, per cent of control (CAMK2G (human)): 71%
- kinase still bound, per cent of control (YES1 (human)): 84%
- kinase still bound, per cent of control [3]: 49%
- kinase still bound, per cent of control (CAMK2B (human)): 65%
